Laboratory results taken from patent EP2057185B1, “POLYMYXIN DERIVATIVES AND USES THEREOF” (Northern Antibiotics Oy, priority 2006, dated 2008).
Bridge positions count the residues as written; N and C are the ends. Square brackets hold non-standard residues; d marks the D form. Peptide text beside a SMILES is read from it. Dab = NCC[C@H](N)C(=O)O; Abu = CC[C@H](N)C(=O)O

Tests used:
[1] = tested on: E. coli IH3080; assay: Growth inhibition around wells on LB agar plates; format: cell-based, Escherichia coli; conditions: 18 h at 37°C; for Antibacterial activity at 4 µg: growth inhibition area around a well containing 4 µg of compound; for Antibacterial activity at 10 µg: growth inhibition area around a well containing 10 µg of compound
Description: Peptides synthesized in Example 1, all carrying at least two (2) but not more than three (3) positive charges, were studied for their ability to inhibit the growth of E. coli. This was tested employing LB agar (LB Agar Lennox, Difco, BD, Sparks, MD, U.S.A) plates. The indicator organism E. coli IH3080 (K1:O18) was an encapsulated strain originally isolated from a neonate suffering from meningitis (Vaara et al. 1984) and obtained from National Public Health Institute, Helsinki, Finland.
(§1) From an overnight-grown culture of IH3080 on LB agar, a suspension of approx. 10^8 cells/ml was prepared in 0.9% NaCl. Aliquots of this suspension were then pipetted on the agar plates and the plates were gently shaken to spread the suspension evenly on the entire surface of the plate. Thereafter, the unabsorbed part of the suspension was removed by using a Pasteur pipette. After the surface had dried, small wells (diameter, 2 mm) were drilled on the plates (five wells per plate) by using a sterile sharp-edged narrow metal tube, single-use pipette tip, and vacuum suction. […] Controls included 0.9% NaCl solution without the compound to be tested. The plates were then incubated for 18 h at 37°C whereafter the diameters of growth inhibition zones around each well were measured; the diameter of the well itself was […]. Finally, the diameters were converted to surface areas of growth inhibition (in square mm).

[2] = tested on: E. coli IH3080; assay: Growth inhibition around wells on LB plates containing rifampin (sensitization); format: cell-based, Escherichia coli; conditions: well containing 4 µg of compound; for Antibacterial activity in the presence of rifampin concn (µg/ml) of 0: plates with no rifampin; for Antibacterial activity in the presence of rifampin concn (µg/ml) of 0.1: rifampin 0.1 µg/ml; for Antibacterial activity in the presence of rifampin concn (µg/ml) of 1.0: rifampin 1.0 µg/ml
Description: as §1, with “mm). […] Louis, MO, U.S.A).” for “mm).”

[3] = tested on: E. coli ATCC25922; assay: MIC by E-strips on Mueller-Hinton agar with or without NAB7061 (4 µg/ml); format: cell-based, Escherichia coli; conditions: ratio of the MIC of the antibiotic in the absence of NAB 7061 to that in the presence of 4 µg/ml of NAB 7061; E. coli ATCC 25922
Description: (§2) MICs were determined by using E-strips (Biodisk Ltd., Solna, Sweden) according to the manufacturer's instructions.
(§3) The strains originated from ATCC (11 strains), CCUG (11 strains), and NCTC (The National Collection of Type Cultures, Colindale, U.K.; 2 strains). Eight strains (the F-strains) were purchased from Mobidiag Ltd., Helsinki, Finland.

[4] = tested on: E. coli IH3080; assay: as above; format: cell-based, Escherichia coli; conditions: ratio of the MIC of the antibiotic in the absence of NAB 7061 to that in the presence of 4 µg/ml of NAB 7061; E. coli IH 3080
Description: as §2, §3

[5] = tested on: K. pneumoniae ATCC13883; assay: as above; format: cell-based, Klebsiella pneumoniae; conditions: ratio of the MIC of the antibiotic in the absence of NAB 7061 to that in the presence of 4 µg/ml of NAB 7061; K. pneum. ATCC 13883
Description: as §2, §3

[6] = tested on: E. cloacae ATCC23355; assay: as above; format: cell-based, Enterobacter cloacae; conditions: ratio of the MIC of the antibiotic in the absence of NAB 7061 to that in the presence of 4 µg/ml of NAB 7061; E. cloacae ATCC 23355
Description: as §2, §3

[7] = tested on: E. coli (ATCC25922 and IH3080), K. pneumoniae ATCC13883, and E. cloacae ATCC23355; assay: E-strip MIC, summary over the tested strains of Example 7; format: cell-based; conditions: range over the tested strains; NAB7061 4 µg/ml
Description: as §2

[8] = tested on: Ac. baumannii F263; assay: MIC by E-strips on Mueller-Hinton agar with or without NAB7061 (4 µg/ml); format: cell-based, Acinetobacter baumannii; conditions: A. baumannii F263; NAB 7061 4 µg/ml
Description: as §2, §3

[9] = tested on: Ac. baumannii F264; assay: as above; format: cell-based, Acinetobacter baumannii; conditions: A. baumannii F264; NAB 7061 4 µg/ml
Description: as §2, §3

Row | Molecule | Sensitization factor [3] | Sensitization factor [4] | Sensitization factor [5] | Sensitization factor [6] | other results
1 | CC[C@H](NC(=O)[C@@H](N)[C@@H](C)O)C(=O)N[C@H]1CCNC(=O)[C@H]([C@@H](C)O)NC(=O)[C@H](CCN)NC(=O)[C@H](CCN)NC(=O)[C@H](CC(C)C)NC(=O)[C@@H](Cc2ccccc2)NC(=O)[C@H](CCN)NC1=O [NAB 704] (H-T[Abu][Dab][Dab][dF]L[Dab][Dab]T; lactam 3-C) |  |  |  |  | Antibacterial activity at 4 µg [1]: 0 square millimeters; Antibacterial activity at 10 µg [1]: 0 square millimeters; Antibacterial activity in the presence of rifampin concn (µg/ml) of 0 [2]: 0 square millimeters; Antibacterial activity in the presence of rifampin concn (µg/ml) of 0.1 [2]: 0 square millimeters; Antibacterial activity in the presence of rifampin concn (µg/ml) of 1.0 [2]: 24 square millimeters
2 | CC(=O)NC[C@H]1CN(c2ccc(N3CCOCC3)c(F)c2)C(=O)O1 [Linezolid, linezolid] | > 11 | > 8 | > 4 | > 8 | 
3 | CC[C@H]1OC(=O)[C@H](C)[C@@H](O[C@H]2C[C@@](C)(OC)[C@@H](O)[C@H](C)O2)[C@H](C)[C@@H](O[C@@H]2O[C@H](C)C[C@H](N(C)C)[C@H]2O)[C@](C)(O)C[C@@H](C)C(=O)[C@H](C)[C@@H](O)[C@]1(C)O [Erythromycin, erythromycin] | 32 - 48 | 32 - 42 | 24 - 48 | 21 - 43 | Sensitization factor [7]: 21-48
4 | CO[C@H]1/C=C/O[C@@]2(C)Oc3c(C)c(O)c4c(O)c(c(/C=N/N5CCN(C)CC5)c(O)c4c3C2=O)NC(=O)/C(C)=C\C=C\[C@H](C)[C@H](O)[C@@H](C)[C@@H](O)[C@@H](C)[C@H](OC(C)=O)[C@@H]1C [Rifampin, rifampin] | 250 - 750 | 170 - 350 | 250 - 500 | 750 - 1500 | 
5 | CCN1CCN(C(=O)N[C@@H](C(=O)N[C@@H]2C(=O)N3[C@@H]2SC(C)(C)[C@@H]3C(=O)O)c2ccccc2)C(=O)C1=O [piperacillin] | < 2 |  |  |  | 
6 | CN[C@H](CC(C)C)C(=O)N[C@H]1C(=O)N[C@@H](CC(N)=O)C(=O)N[C@H]2C(=O)N[C@H]3C(=O)N[C@H](C(=O)N[C@H](C(=O)O)c4cc(O)cc(O)c4-c4cc3ccc4O)[C@H](O)c3ccc(c(Cl)c3)Oc3cc2cc(c3O[C@@H]2O[C@H](CO)[C@@H](O)[C@H](O)[C@H]2O[C@H]2C[C@](C)(N)[C@H](O)[C@H](C)O2)Oc2ccc(cc2Cl)[C@H]1O [Vancomycin, vancomycin] | 5 | 2.5 | 1 | 32 | 
7 | CC(=O)O[C@H]1C[C@@]2(C)[C@@H](C[C@@H](O)[C@H]3[C@@]4(C)CC[C@@H](O)[C@@H](C)[C@@H]4CC[C@@]32C)/C1=C(\CCC=C(C)C)C(=O)O [Fusidic acid, fusidic acid] | > 43 | > 43 | > 4 | > 8 | 
8 | C/C(=C\C(=O)OCCCCCCCCC(=O)O)C[C@@H]1OC[C@H](C[C@@H]2O[C@H]2[C@@H](C)[C@H](C)O)[C@@H](O)[C@H]1O [Mupirocin, mupirocin] | 64 - 170 | 64 - 85 | 24 - 32 | 250 - 512 | Sensitization factor [7]: 24-512
9 | CC[C@H](NC(=O)[C@@H](NC(=O)[C@@H](N)CC)[C@@H](C)O)C(=O)N[C@H]1CCNC(=O)[C@H]([C@@H](C)O)NC(=O)[C@H](CCN)NC(=O)[C@H](CCN)NC(=O)[C@H](CC(C)C)NC(=O)[C@@H](Cc2ccccc2)NC(=O)[C@H](CCN)NC1=O [NAB 705] (H-[Abu]T[Abu][Dab][Dab][dF]L[Dab][Dab]T; lactam 4-C) |  |  |  |  | Antibacterial activity at 4 µg [1]: 0 square millimeters; Antibacterial activity at 10 µg [1]: 0 square millimeters; Antibacterial activity in the presence of rifampin concn (µg/ml) of 0 [2]: 0 square millimeters; Antibacterial activity in the presence of rifampin concn (µg/ml) of 0.1 [2]: 0 square millimeters; Antibacterial activity in the presence of rifampin concn (µg/ml) of 1.0 [2]: 5 square millimeters
10 | COc1cc(Cc2cnc(N)nc2N)cc(OC)c1OC [Trimetoprim] |  | 3 | 2 | 3 | 
11 | C[C@@H](O)[C@H]1C(=O)N2C(C(=O)O)=C(SCCN=CN)C[C@H]12 [imipenem] |  |  |  |  | MIC (µg/ml) at the indicated concn (µg/ml) of NAB 7061: 4 [8]: 8 µg/mL; MIC (µg/ml) at the indicated concn (µg/ml) of NAB 7061: 4 [9]: 6 µg/mL
12 | C[C@H]1COc2c(N3CCN(C)CC3)c(F)cc3c(=O)c(C(=O)O)cn1c23 [levofloxacin] | < 2 |  |  |  | 
13 | quinupristin-dalfopristin [Quinupristin-dalfopr.] | > 21 | > 21 | 1 | > 5 | 
14 | CC[C@@H]1NC(=O)[C@H](CC(C)C)NC(=O)[C@@H](Cc2ccccc2)NC(=O)[C@H](CCN)NC(=O)[C@@H](NC(=O)[C@H](CCN)NC(=O)[C@@H](N)[C@@H](C)O)CCNC(=O)[C@H]([C@@H](C)O)NC(=O)[C@H](CC)NC1=O [NAB 701] (H-T[Dab][Dab][Dab][dF]L[Abu][Abu]T; lactam 3-C) |  |  |  |  | Antibacterial activity at 4 µg [1]: 0 square millimeters; Antibacterial activity at 10 µg [1]: 0 square millimeters; Antibacterial activity in the presence of rifampin concn (µg/ml) of 0 [2]: 0 square millimeters; Antibacterial activity in the presence of rifampin concn (µg/ml) of 0.1 [2]: 0 square millimeters; Antibacterial activity in the presence of rifampin concn (µg/ml) of 1.0 [2]: 0 square millimeters
15 | C[C@@H](O)[C@H]1C(=O)N2C(C(=O)O)=C(S[C@@H]3CN[C@H](C(=O)N(C)C)C3)[C@H](C)[C@H]12 [meropenem] | < 2 |  |  |  | MIC (µg/ml) at the indicated concn (µg/ml) of NAB 7061: 4 [8]: 6 µg/mL; MIC (µg/ml) at the indicated concn (µg/ml) of NAB 7061: 4 [9]: 4 µg/mL
16 | NC[C@H]1O[C@H](O[C@H]2[C@H](O)[C@@H](O[C@H]3O[C@H](CO)[C@@H](O)[C@H](N)[C@H]3O)[C@H](N)C[C@@H]2N)[C@H](N)C[C@@H]1O [tobramycin] | < 2 |  |  |  | 
17 | CO/N=C(\C(=O)N[C@@H]1C(=O)N2C(C(=O)O)=C(COC(C)=O)CS[C@H]12)c1csc(N)n1 [cefotaxime] | < 2 |  |  |  | 
18 | CC[C@H]1OC(=O)[C@H](C)[C@@H](O[C@H]2C[C@@](C)(OC)[C@@H](O)[C@H](C)O2)[C@H](C)[C@@H](O[C@@H]2O[C@H](C)C[C@H](N(C)C)[C@H]2O)[C@](C)(O)C[C@@H](C)CN(C)[C@H](C)[C@@H](O)[C@]1(C)O [Azithromycin, azithromycin] | 24 - 64 | 31 - 94 | 31 - 43 | 32 | Sensitization factor [7]: 31-94
19 | CC(C)(O/N=C(\C(=O)N[C@@H]1C(=O)N2C(C(=O)[O-])=C(C[n+]3ccccc3)CS[C@H]12)c1csc(N)n1)C(=O)O [ceftazidime] | < 2 |  |  |  | 
